Data: article PMC10950554 (Methods in enzymology, 2023)

Biological target: ERK2 (Rattus norvegicus, UniProt P63086)
Assay: competitive fluorescence anisotropy displacement of FITC-X-Lig-D
Type: binding

Chain of ERK2 (P63086 2-358): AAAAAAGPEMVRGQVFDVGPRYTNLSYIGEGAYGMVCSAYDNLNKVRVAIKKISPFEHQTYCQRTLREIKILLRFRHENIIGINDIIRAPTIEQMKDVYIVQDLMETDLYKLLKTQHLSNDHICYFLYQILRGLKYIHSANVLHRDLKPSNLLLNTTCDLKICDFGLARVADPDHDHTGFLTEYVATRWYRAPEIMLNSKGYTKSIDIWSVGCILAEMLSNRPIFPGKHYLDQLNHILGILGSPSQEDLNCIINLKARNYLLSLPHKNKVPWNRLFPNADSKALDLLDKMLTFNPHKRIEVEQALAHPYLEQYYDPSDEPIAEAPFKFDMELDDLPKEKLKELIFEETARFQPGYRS

- Ki: 730 ± 260 nM
SMILES: CC1(C)C2CCC(CN=C(N)CSS(=O)(=O)O)C1C2 (stereo not shown) [NSC 194308]
